SMILES strings stand for the structures.

This test has as its system chick chorioallantoic membrane (CAM). The experiment in a line: chick chorioallantoic membrane (CAM) assay, inhibition of angiogenesis. The class given is in vivo. Also noted: key: 0: normal vascularity; 1: lacking some microvascular movement; small avascular zone approximately 2 mm in diameter; 3: avascularity extending beyond the disk (6 mm in diameter). The conditions noted are these: 2 day exposure. The procedure:
Paclitaxel, dipyridamole, and a combination of paclitaxel and dipyridimole were tested in a chick chorioallantoic membrane (CAM) assay (A. Cevik Tufan and N. Lalae Satirglu-Tufanm Current Cancer Drug Targets, 2005, 5: 249-266) to measure inhibition of angiogenesis by the compounds.
Fertilized, domestic chick embryos were incubated for 4 days prior to shell-less culturing. In this procedure, the egg contents were emptied by cracking the shell, and allowing the contents of the egg to gently slide out. The egg contents were emptied into sterilized petri dishes and then covered with petri dish covers. These were then placed into an incubator at 37 degrees and 90% relative humidity for 4 days.
Paclitaxel (Hauser Lot 1492-16199A) was fixed at concentrations of 0.3 μg and 1 μg per 10 ul aliquot of 0.5% aqueous methylcellulose (disc). Dipyridamole (Aldrich 285676, Lot 064K157) was added to each fixed dose of paclitaxel at specific molar ratios of 1:3, 1:10, 1:1, 3:1, 10:1. Neat solvent (DMSO), paclitaxel at 0.3 μg and 1 μg per disc and the dipyridamole at 5.92 μg per disc were used as the individual controls. Ten microliter aliquots of this solution were dried on parafilm for 3 hours forming disks 2 mm in diameter. The dried disks containing the combination ratios and controls were then carefully placed at the growing edge of each CAM at day 7 of incubation. After a 2 day exposure ([…]) the vasculature was examined with the aid of a stereomicroscope. Liposyn II, a white opaque solution, was injected into the CAM to increase the visibility of the vascular details.
This imaging setup was used at a magnification of 160× which permitted the direct visualization of blood cells within the capillaries; thereby blood flow in areas of interest may be easily assessed and recorded. For this study, the inhibition of angiogenesis was defined as an area of the CAM (measuring 2-6 mm in diameter) lacking a capillary network and vascular blood flow. Throughout the experiments, avascular zones were assessed on a 4 point avascular gradient (Table 1). This scale represents the degree of overall inhibition with maximal inhibition represented as a 3 on the avascular gradient scale.

Take `CC(=O)O[C@H]1C(=O)[C@@]2(C)[C@H]([C@H](OC(=O)c3ccccc3)[C@]3(O)C[C@H](OC(=O)[C@H](O)[C@@H](NC(=O)c4ccccc4)c4ccccc4)C(C)=C1C3(C)C)[C@]1(OC(C)=O)CO[C@@H]1C[C@@H]2O` [Paclitaxel (control), paclitaxel]: under “paclitaxel 1 μg/10 μL disc alone”, the “Score (avascular gradient scale)” value is reported as 2.
For the compound `OCCN(CCO)c1nc(N2CCCCC2)c2nc(N(CCO)CCO)nc(N3CCCCC3)c2n1` [Dipyridamole (control), 2,6-bis(diethanolamino)-4,8-dipiperidinopyrimido(5,4-d) pyrimidine], the “Score (avascular gradient scale)” value runs as follows: (dipyridamole 0.02 μg/10 μL disc alone) 0; (dipyridamole 0.06 μg/10 μL disc alone) 0; (dipyridamole 5.92 μg/10 μL disc alone) 0.
